# Assay results as given in publication PMC12498288 (Frontiers in Immunology, 2025).
# Values joined by “and” are separate entries in the source; they are usually repeats but may differ in a detail not shown here. Equal entries are not always repeated. Where two headings read alike, the source gives them in different places.
# What was measured:
# [1] = system: SARS-CoV-2 Omicron B1.1.592; experiment: microbe, parasite or virus in culture; type: cell-based; details: Severe acute respiratory syndrome coronavirus 2, Calu-3, 24 h
# [2] = Pharmacokinetics after a single oral dose in Syrian hamsters (serum, HPLC-MS/MS); type: in vivo; details: for C(24 h): mean concentration at 24 h; for Cmax / AUC / Tmax / half-life: po
# Source text: Zapnometinib was synthesized by Chemcon GmbH (Freiburg, Germany). Before administration to Syrian hamsters, it was freshly dissolved in dimethyl sulfoxide (DMSO) (Carl Roth GmbH, Karlsruhe, Germany) and then further dissolved in 15% Kolliphor EL (Sigma-Aldrich, Germany) and 80% phosphate-buffered saline (PBS) (Gibco, Life Technology Europe B.V., Bleiswijk, the Netherlands). Kolliphor EL is used to emulsify and solubilize oils and other water in-soluble substances, it has been used as a pharmaceutical solvent for numerous drugs and has proven in previous in vivo studies with zapnometinib. Zapnometinib was administered orally at the indicated doses in a volume of 500 μL/150 g body weight using a gavage needle.
# Drug administration and blood sampling in Syrian hamsters were performed by Viroclinics Xplore (Schaijk, the Netherlands) and are described in the sections “Drug administration” and “Sampling after inoculation”. Specifically, at different time points (0, 0.5, 1, 2, 4, 8, 12, and 24 h) after the administration of a single dose of zapnometinib (15, 30, or 60 mg/kg per oral (p.o.)), ~200 µL blood was collected retro-orbitally from three animals per time point per dose and alternating animals between time points (except at 24 h, n = 6 per group) under isoflurane anesthesia using a heparinized capillary tube containing a clot activator (Microvette 500 Z-Gel, Sarstedt). Serum was collected by centrifuging the tubes at 4000 x g for 10 min, aliquoted, and stored at < -70°C until pharmacokinetic analysis. Daily clinical observations included monitoring of signs such as ruffled fur, hunched back posture, accelerated breathing and lethargy, and the body weight was monitored before and 24 h post administration.
# Bioanalysis and pharmacokinetic evaluation were performed at Prolytic GmbH (Frankfurt, Germany). […] liquid chromatography tandem mass spectrometry (HPLC-MS/MS) was employed to determine the concentration of zapnometinib in hamster serum in accordance with the company’s SOPs. During the analytical phase, two batches were evaluated. The acceptance criteria for the calibration standards and quality control (QC) samples were fulfilled for both batches as per the company’s SOPs. […] In total, 81 study test samples were analyzed. The validity of the method during the analysis of the test samples was ensured by assaying QC samples with known concentrations of zapnometinib; zapnometinib 13C6 was used as the internal standard. The lower limit of quantification (LLOQ) of the method was determined to be 10 ng/mL for zapnometinib in undiluted serum. All serum concentrations falling below LLOQ were assigned a value of 0. ANALYST software was used to calculate the concentrations of the test and QC samples based on the corresponding calibration curves. The obtained mean serum concentrations were used for noncompartmental pharmacokinetic evaluation with Phoenix® WinNonLin software (Pharsight Corporation, Mountain View, CA, USA; version 8.1).
# [3] = Syrian, hamster, serum, 15 mg/kg p.o. single dose
# [4] = Syrian, hamster, serum, 30 mg/kg p.o. single dose
# [5] = hamster, serum, 60 mg/kg p.o. single dose
# [6] = single doses of 15, 30 or 60 mg/kg p.o.
compound,measurement,setting,value
O=C(O)c1ccc(F)c(F)c1Nc1ccc(I)cc1Cl [zapnometinib],EC50,[1],37.9 µM and 15.5 µg/mL
same,C(24 h),[2]; 15 mg/kg p.o. single dose,0.26 µM
same,C(24 h),[2]; 30 mg/kg p.o. single dose,0.55 µM
same,Cmax,"[2]; Syrian, hamster, 15 mg/kg p.o. single dose, serum",85100 ng/mL and 34.8 µM
same,Cmax,"[2]; Syrian, hamster, 30 mg/kg p.o. single dose, serum",53.9 µM
same,concentration at 24 h,"[2]; Syrian, hamster, serum, oral, 60 mg/kg p.o. single dose, read-out: concentration of zapnometinib after 24 h",5320 ng/mL and 13 µM
same,AUC,[2]; [3],672 µg·h/mL
same,Tmax,[2]; [3],2 h
same,half-life,"[2]; Syrian, hamster, serum, 15 mg/kg p.o. single dose, read-out: T1/2 (converted)",2.74 h
same,AUC,[2]; [4],1230 µg·h/mL
same,Tmax,[2]; [4],2 h
same,half-life,"[2]; Syrian, hamster, serum, 30 mg/kg p.o. single dose, read-out: T1/2 (converted)",2.75 h
same,half-life,"[2]; Syrian, hamster, serum, all dose groups (15, 30, 60 mg/kg p.o.), read-out: apparent terminal half-life",2 to 3 h
same,Cmax,"[2]; hamster, 30 mg/kg p.o. single dose, serum",132 µg/mL
same,Cmax,"[2]; hamster, 60 mg/kg p.o. single dose, serum",242000 ng/mL and 99.2 µM
same,AUC,[2]; [5],2970 µg·h/mL
same,Tmax,[2]; [5],4 h
same,half-life,"[2]; hamster, serum, 60 mg/kg p.o. single dose, read-out: T1/2 (converted)",3.07 h
same,adverse events,[2]; [6],no adverse events were reported
same,tolerability,[2]; [6],well tolerated
